Experimental data published in US10532085B2, “Methods for increasing intracellular activity of Hsp70” (Orphazyme A/S, priority 2010, dated 2020).

How the values were obtained:
ASM = target: T1, ASM (Homo sapiens, UniProt P17405); assay: BIAcore: binding of ASM to BMP-containing LUVs after rHsp70 pretreatment
T1 construct: made in house
T1 sequence (P17405 47-631): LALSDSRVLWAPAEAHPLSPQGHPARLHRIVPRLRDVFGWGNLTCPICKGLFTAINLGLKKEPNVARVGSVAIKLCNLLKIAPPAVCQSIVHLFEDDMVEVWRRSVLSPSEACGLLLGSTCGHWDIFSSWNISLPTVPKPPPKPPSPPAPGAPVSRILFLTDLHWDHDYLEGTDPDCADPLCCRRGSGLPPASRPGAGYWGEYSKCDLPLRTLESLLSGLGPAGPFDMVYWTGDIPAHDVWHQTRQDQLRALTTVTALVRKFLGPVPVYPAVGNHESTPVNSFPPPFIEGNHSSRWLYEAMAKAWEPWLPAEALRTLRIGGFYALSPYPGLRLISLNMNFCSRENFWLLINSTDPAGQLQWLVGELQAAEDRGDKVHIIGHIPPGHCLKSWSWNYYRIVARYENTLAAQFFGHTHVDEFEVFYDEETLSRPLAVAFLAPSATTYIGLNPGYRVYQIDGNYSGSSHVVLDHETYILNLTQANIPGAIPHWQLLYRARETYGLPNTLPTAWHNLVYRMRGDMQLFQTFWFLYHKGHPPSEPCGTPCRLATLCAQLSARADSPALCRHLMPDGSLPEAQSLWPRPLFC
From the text: BMP binds ASM with high affinity and stimulates its ability to hydrolyze sphingomyelin to ceramide and phosphorylcholine. […] In order to test whether ASM is responsible for the lysosome stabilizing effect we treated the cells with desipramine, a well characterized pharmacological ASM inhibitor. […] It should be noted that akin to rHsp70, also rASM localized to the lysosomes.
For preparation of LUVs a lipid mixture consisting of 10 mol % sphingomyelin, 50 mol % phosphatidylcholine, 20 mol % cholesterol and 20 mol % BMP dissolved in organic solvents, was dried under a stream of argon and rehydrated in Tris/HCl buffer (pH 7.4). The mixture was freeze-thawed nine times in liquid nitrogen and then in an incubator at 37° C. After ultrasound bath for 15 min the mixture was passed 21 times through a polycarbonate membrane with a pore diameter of 100 nm. Surface plasmon resonance measurements were performed using a BIAcore 2000 system at 25° C. LUVs (total lipid concentration 0.1 mM) were immobilized on the surface of a L1 sensor chip (BIAcore) in PBS (loading buffer). The running buffer used was sodium acetate buffer (50 mM, pH 4.5). As a control, acid sphingomyelinase (0.2 μM, 60 μl in running buffer) was injected directly on the liposome surface. Response units between 4100 RU—5250RU were obtained. […]

[1] = test system: primary fibroblasts from Niemann-Pick Disease type C1 patient; assay: Lysosomal cross-sectional area, laser confocal microscopy, NPC1 fibroblasts; format: cell-based, human; conditions: Alexa Fluor 488 labelled, added for 48 h; GM17918
Description: FIG. 7: Test of rhHSP70 in non-sphingolipidosis. rhHSP70 labelled with Alexa Fluor 488 (for visualization of uptake) was added for 48 h to primary fibroblasts from Niemann-Pick Disease type C1 patient (Coriell Cell Repository ID: GM17918). Read-out: lysosomal cross-sectional area (Primary cellular pathology), performed by laser confocal microscopy.

NPC−/− mice [2] = assay: NPC1 in vivo pilot study: tissue cholesterol (Amplex Red Cholesterol Assay)
Description: (§1) Eight treated (rHSP70) NPC^−/− versus eight control (PBS only) NPC^−/− controls. Mice were treated IP three times per week with either 10 mg/kg of rHSP70 or vehicle alone (PBS) from 3 weeks of age. Three control and three treated mice were sacrificed at 7 or 9 weeks old (i.e. after 4 or 6 weeks of treatment, respectively). Organs were perfused (PBS), weighed and frozen for biochemical and immunohistochemical analysis.
Organs were homogenised without any added buffer and frozen as 10 ul aliquots. Fresh aliquots were reconstituted to 100 ul with PBS prior to biochemical analysis. Protein determination for each aliquot was performed by BCA protein assay. Cholesterol assays were performed using the Amplex Red Cholesterol Assay from Invitrogen^i. Sphingosine was isolated by sphingoid base extraction and analysed by HPLC^i. GSLs were extracted and analysed by fluorescent HPLC^i. All results were standardised for protein content.

NPC−/− mice [3] = assay: NPC1 in vivo pilot study: growth curves; conditions: 10 mg/kg IP three times per week from 3 weeks of age vs PBS
Description: FIG. 12: Control NPC−/− mice (A) have shallower and more sporadic growth patterns than HSP70 treated mice (B). Points where growth curves stop abruptly, indicates mice killed for organs. In panel A: Series 1 and 3 are female; Series 2 and 5-8 are male. In panel B: Series 2 and 4-7 are female; Series 1, 3, and 8 are male.
as §1

[4] = test system: primary fibroblasts from Mucopolysaccharidosis type IIIA patients; assay: Volume of Acidic Compartment (VAC) by FACS, MPS IIIA fibroblasts; format: cell-based, human; conditions: added for 48 h, MPSIIIA GM00879
Description: FIG. 10: Test of rhHSP70 in non-sphingolipidosis. rhHSP70 was added for 48 h to primary fibroblasts from Sandhoff Disease and Mucopolysaccharidosis type IIIA (aka Sanfilippo type IIIA) patients (Coriell Cell Repository ID: Sandhoff: GM11098, MPSIIIA: GM00879). Ctrl=Normal Control fibroblasts. Read-out: Volume of Acidic Compartment (VAC) (Primary cellular pathology), performed by FACS.

**Q.** How did the “subsequent binding of ASM to BMP-containing LUVs” value (ASM; higher rHsp70 concentrations) turn out when “rHsp70: recombinant (human) heat shock protein 70; in some tests labelled with Alexa Fluor 488” was run?
**A.** Its value is “inhibitory effect”.

**Q.** What about the “subsequent binding of ASM to BMP-containing LUVs” value (ASM; pretreatment with rHsp70 at sub-equimolar concentrations) of the same substance?
**A.** The value was “facilitated the subsequent binding of ASM”.

**Q.** And the “lysosomal cross-sectional area (primary cellular pathology)” value [1]?
**A.** Its value is “effectively reverts the lysosomal primary pathology”.

**Q.** And the “cholesterol in peripheral tissue” value (NPC−/− mice [2]; 7 week time point, compared to control)?
**A.** The value was “significant decreases”.

**Q.** And the brain cholesterol (NPC−/− mice [2]; 7 week time point, done in triplicate)?
**A.** The brain cholesterol was “decrease, although the decrease only occurred in one repeat of the experiment”.

**Q.** What about the cholesterol (NPC−/− mice [2]; 9 week time point) of the same substance?
**A.** The cholesterol was “no difference”.

**Q.** And the “growth curves (body weight)” value (NPC−/− mice [3])?
**A.** The value was “rise more steadily and reach higher weights”.

**Q.** And the “Volume of Acidic Compartment (VAC)” value [4]?
**A.** Its value is “effectively reverts the lysosomal primary pathology”.
